According to patent US12312370B2, “Immunoproteasome inhibitors” (Principia Biopharma Inc., priority 2017, dated 2025):
Where two headings read alike, the source gives them in different places.

Key:
HT29/B5c [1] = target: T1, HT29/B5c (Homo sapiens, UniProt P28074); assay: Proteasome-Glo inhibition of proteasome activity in cells, HT29/B5c; assay type: cell-based; details: HT-29 cells, 2 h incubation at 37° C.
Description: (§1) The cell-based effects of a compound described herein on the immunoproteasome were determined by measuring inhibition of proteasome activity in cells using the Proteasome-Glo™ Cell-Based Reagent (Promega, Madison WI). The Proteasome-Glo™ assay contains a specific luminogenic proteasome substrate in a buffer optimized for cell permeabilization, proteasome activity, and luciferase activity. For the chymotrypsin-like activity (LMP7 and β5c), the peptide substrate is Suc-LLVY-aminoluciferin (Succinyl-leucine-leucine-valine-tyrosine-aminoluciferin). Cleavage of the substrate by proteasome results in luminescent signal which is proportional to the proteasome activity. The cell line THP-1 (a monocytic leukemia cell line enriched in immunoproteasome), the cell line HT-29 (a colorectal adenocarcinoma cell line enriched in constitutive proteasome), and primary human peripheral blood mononuclear cells (PBMC) were used to assess proteasome activity. Cells were seeded in a 96-well plate at 10,000 cells per well in RPMI 1640 high glucose medium with 10% fetal bovine scrum (FBS). Compound dilutions were added to cells starting at a concentration of 5 uM and decreasing in tripling dilutions. The final DMSO concentration was 1%. The concentration range was adjusted as needed for compounds of different potencies. The cells treated with compounds were incubated for 2 h at 37° C. in 5% CO2. At the end of the 2 hour incubation period, cells were transferred to white 384 well assay plates. 20 uL of Proteasome-Glo™ Reagent was added to each well and incubated for 10 minutes at rt. The plate was read in the Analyst HT instrument (Molecular Devices, Sunnyvale, CA) using luminescence mode. The percent inhibition of activity was plotted as a function of log compound concentration. The IC50 was then calculated for each compound using Prism software from GraphPad Software Inc. (San Diego, CA).

PBMC/LMP7 [2] = target: T2, PBMC/LMP7 (Homo sapiens, UniProt P28062); assay: Durability of binding in cells, wash-out assay, PBMC/LMP7; assay type: cell-based; details: 2 h incubation, inhibitor washout
Description: (§2) The durability of binding of proteasome inhibitors was assessed in cells using wash-out assays and the Proteasome-Glo™ Reagent kit. THP-1 cells. HT-29 cells, or PBMC were incubated with an 8-fold dilution series of inhibitor for 2 h. Following 2 h of incubation, cells were washed using 3 occasions of centrifugation followed by resuspension in culture medium. Following inhibitor washout, cells were returned to culture for either 30 minutes, 4 h, or 18 h. Cells were then transferred to white 384 plates, and 20 uL of Proteasome-Glo™ Reagent was added to each well for 10 minutes. Plates were then read on an Analyst HT plate reader using luminescence mode. The percent inhibition of activity was plotted as a function of log compound concentration. The IC50 was then calculated for each compound using Prism software from GraphPad.

PBMC/LMP2 [3] = target: T3, PBMC/LMP2 (Homo sapiens, UniProt P28065); assay: Durability of binding in cells, wash-out assay, PBMC/LMP2; assay type: cell-based; details: 2 h incubation, inhibitor washout
Description: as §2

[4] = target: constitutive proteasome β5c unit (Homo sapiens, UniProt P28074); assay: Caliper-based proteasome enzymatic activity assay, β5c; assay type: biochemical; details: human recombinant constitutive proteasome 0.3 nM, FAM-labeled peptide substrate 1 μM, rt 3 h; read-out: β5c subunit IC50
PBMC/LMP7 [5] = target: T2, PBMC/LMP7; assay: Proteasome-Glo inhibition of proteasome activity in cells, PBMC/LMP7; assay type: cell-based; details: 2 h incubation at 37° C.
Description: as §1

HT29/B5c [6] = target: T1, HT29/B5c; assay: Durability of binding in cells, wash-out assay, HT29/B5c; assay type: cell-based; details: 2 h incubation, inhibitor washout
Description: as §2

PBMC/LMP2 [7] = target: T3, PBMC/LMP2; assay: Proteasome-Glo inhibition of proteasome activity in cells, PBMC/LMP2; assay type: cell-based; details: 2 h incubation at 37° C.
[8] = target: immunoproteasome LMP7/B5i subunit (Homo sapiens, UniProt P28062); assay: Caliper-based proteasome enzymatic activity assay, LMP7; assay type: biochemical; details: human recombinant immunoproteasome 0.3 nM, FAM-labeled peptide substrate 1 μM, rt 3 h; read-out: LMP7 subunit IC50
[9] = target: immunoproteasome LPM2/β1i subunit (Homo sapiens, UniProt P28065); assay: Caliper-based proteasome enzymatic activity assay, LMP2; assay type: biochemical; details: human recombinant immunoproteasome 0.3 nM, FAM-labeled peptide substrate 1 μM, rt 2 h
[10] = tested on: multiple myeloma cell lines and primary patient tumor cells; details: including those resistant to conventional and novel prior therapies; cited from earlier work
prostate PC-3 cell line = details: PC-3 cell line in vitro; cited from earlier work
tumor growth = details: in vivo; cited from earlier work
[11] = tested on: murine collagen-induced arthritis; details: cited from earlier work
Th1/17 differentiation [12] = details: mouse; cited from earlier work
MRL/lpr lupus model = details: cited from earlier work
[13] = tested on: murine DSS-induced colitis model; details: cited from earlier work
[14] = tested on: Hashimoto's thyroiditis model; details: autoantibody-driven Hashimoto's thyroiditis model; cited from earlier work
Th1/17 differentiation [15] = details: human; cited from earlier work

CC(C)C=C(C#N)C(=O)N1CCC[C@@H]1COC[C@H](NC(=O)c1cc(Cl)ccc1Cl)C(=O)N[C@@H](Cc1ccccc1)B(O)O [Example 14, ((R)-1-((S)-3-(((R)-1-(2-cyano-4-methylpent-2-enoyl)pyrrolidin-2-yl)methoxy)-2-(2,5-dichlorobenzamido)propanamido)-2-phenylethyl)boronic acid]
IC50 (HT29/B5c [1]): 60 nM
IC50 (PBMC/LMP7 [2]; 30 min in culture): 50 nM
IC50 (PBMC/LMP7 [2]; 4 hr in culture): 93 nM
IC50 (PBMC/LMP7 [2]; 18 hr in culture): 146 nM
IC50 (PBMC/LMP2 [3]; 30 min in culture): 27 nM
IC50 (PBMC/LMP2 [3]; 4 hr in culture): 505 nM
IC50 (PBMC/LMP2 [3]; 18 hr in culture): 2960 nM
IC50 [4]: 2.4 nM
IC50 (PBMC/LMP7 [5]): 31 nM
IC50 (HT29/B5c [6]; 30 min in culture): 82 nM
IC50 (HT29/B5c [6]; 4 hr in culture): 87 nM
IC50 (HT29/B5c [6]; 18 hr in culture): 1850 nM
IC50 (PBMC/LMP2 [7]): 274 nM
IC50 [8]: 1.7 nM
IC50 [9]: 138 nM

CC1=C(C(=O)N[C@H](C)C(=O)N[C@@H](Cc2c[nH]c3ccccc23)C(=O)N[C@@H](Cc2ccccc2)C(=O)[C@@]2(C)CO2)Cc2ccccc21 [PR-924]
growth of multiple myeloma cell lines and primary patient tumor cells [10]: inhibit growth

C=CC(=O)N(C)c1cccc(C[C@H](NC(=O)c2cc(Cl)ccc2Cl)C(=O)N[C@@H](Cc2ccccc2)B(O)O)c1 [Example 15, ((R)-1-((S)-2-(2,5-dichlorobenzamido)-3-(3-(N-methylacrylamido)phenyl)propanamido)-2-phenylethyl)boronic acid]
IC50 (HT29/B5c [1]): 141 nM
IC50 [4]: 5 nM
IC50 (PBMC/LMP7 [5]): 35 nM
IC50 [8]: 4.3 nM
IC50 [9]: 2.7 nM

CC(C)C=C(C#N)C(=O)NCCCC[C@H](NCC(F)(F)F)C(=O)N[C@@H](Cc1ccccc1)B(O)O [Example 13, ((R)-1-((S)-6-(2-cyano-4-methylpent-2-enamido)-2-((2,2,2-trifluoroethyl)amino)hexanamido)-2-phenylethyl)boronic acid]
IC50 (HT29/B5c [1]): 242 nM
IC50 [4]: 292 nM
IC50 (PBMC/LMP7 [5]): 50 nM
IC50 [8]: 67.1 nM
IC50 [9]: > 5000 nM

CCCCCCC(=O)N[C@@H](C)C(=O)N[C@@H](CC(C)C)C(=O)[C@@]1(CO[Si](C)(C)C(C)(C)C)CO1 [UK-101]
apoptosis (prostate PC-3 cell line): induced apoptosis
tumor growth (tumor growth): significantly suppressed tumor growth

CC(C)C=C(C#N)C(=O)NCCCC[C@H](NC(=O)c1cc(Cl)ccc1Cl)C(=O)N[C@@H](Cc1ccccc1)B(O)O [Example 8, ((R)-1-((S)-6-(2-cyano-4-methylpent-2-enamido)-2-(2,5-dichlorobenzamido)hexanamido)-2-phenylethyl)boronic acid]
IC50 [4]: 4.4 nM
IC50 (PBMC/LMP7 [5]): 39 nM
IC50 [8]: 2.4 nM
IC50 [9]: 79 nM

CC(C)C=C(C#N)C(=O)N1CCC(CCCC(=O)N[C@@H](Cc2ccccc2)B(O)O)CC1 [Example 29, (R)-(1-(4-(1-(2-cyano-4-methylpent-2-enoyl)piperidin-4-yl)butanamido)-2-phenylethyl)boronic acid]
IC50 (HT29/B5c [1]): 3590 nM
IC50 [4]: 964 nM
IC50 (PBMC/LMP7 [5]): 307 nM
IC50 [8]: 319 nM
IC50 [9]: > 5000 nM

CC(C)C=C(C#N)C(=O)N(C)c1cccc(C[C@H](NC(=O)c2cc(Cl)ccc2Cl)C(=O)N[C@@H](Cc2ccccc2)B(O)O)c1 [Example 20, ((R)-1-((S)-3-(3-(2-cyano-N,4-dimethylpent-2-enamido)phenyl)-2-(2,5-dichlorobenzamido)propanamido)-2-phenylethyl)boronic acid]
IC50 [4]: 8.1 nM
IC50 (PBMC/LMP7 [5]): 34 nM
IC50 (PBMC/LMP2 [7]): 208 nM
IC50 [8]: 2.4 nM
IC50 [9]: 483 nM

COc1ccc(C[C@H](NC(=O)[C@H](C)NC(=O)CN2CCOCC2)C(=O)N[C@@H](Cc2ccccc2)C(=O)[C@@]2(C)CO2)cc1 [PR-957]
disease activity [11]: significantly inhibit disease activity
Th1/17 differentiation (Th1/17 differentiation [12]): potently block
disease progression (MRL/lpr lupus model): prevented disease progression
plasma cell numbers and anti-dsDNA IgG levels (MRL/lpr lupus model): reduced plasma cell numbers and anti-dsDNA IgG levels
inflammation and tissue destruction [13]: reduced inflammation and tissue destruction
efficacy [14]: efficacious
Th1/17 differentiation (Th1/17 differentiation [15]): potently block
